Experimental data taken from the supplement of paper PMC12463676, “Small-molecule dissolution of stress granules by redox modulation benefits ALS models” (Nature Chemical Biology, 2025).

Legend:
[1] = compound: NC(=O)CCCCC1CCSS1 [lipoamide]; test: thermal stability z-score vs DMSO; higher = more thermally stabilized by treatment; conditions: HeLa, lipoamide concentration 100 µM
Description: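 Cellular thermal proteome profiling in HeLa cells. Cells were treated with 100 µM lipoamide for 1 h, with or without 1 mM arsenate for a further 1 h, then heated to ten temperatures (37-66.3 °C), and soluble protein was quantified by TMT mass spectrometry relative to 0.1% DMSO controls. The thermal stability score (sum of log2 fold changes minus the abundance score) was transformed to a z-score; mean of n = 3 experiments.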

[2] = compound: O=[As]([O-])(O)O.[K+] [potassium arsenate]; test: as above; conditions: HeLa; arsenate concentration 1 mM
Description: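 Cellular thermal proteome profiling in HeLa cells treated with 1 mM arsenate for 1 h (DMSO pretreatment), heated to ten temperatures (37-66.3 °C). Soluble protein was quantified by TMT mass spectrometry relative to DMSO controls; the thermal stability score was transformed to a z-score; mean of n = 3 experiments.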

[3] = arsenate co-treatment: 1 mM arsenate 1 h
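Note: each temperature applied for 3 min, abundance score taken as mean log2 fold change at the two lowest temperatures, z-score obtained by mean subtraction and division by SD.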

Chain of UniProt Q15771 (Q15771 whole entry): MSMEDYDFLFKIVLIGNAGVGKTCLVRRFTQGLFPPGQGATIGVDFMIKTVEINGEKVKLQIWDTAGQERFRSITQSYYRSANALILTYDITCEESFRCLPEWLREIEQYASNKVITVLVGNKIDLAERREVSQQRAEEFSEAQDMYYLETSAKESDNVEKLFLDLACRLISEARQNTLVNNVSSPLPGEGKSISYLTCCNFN
Chain of UniProt P22830 (P22830 whole entry): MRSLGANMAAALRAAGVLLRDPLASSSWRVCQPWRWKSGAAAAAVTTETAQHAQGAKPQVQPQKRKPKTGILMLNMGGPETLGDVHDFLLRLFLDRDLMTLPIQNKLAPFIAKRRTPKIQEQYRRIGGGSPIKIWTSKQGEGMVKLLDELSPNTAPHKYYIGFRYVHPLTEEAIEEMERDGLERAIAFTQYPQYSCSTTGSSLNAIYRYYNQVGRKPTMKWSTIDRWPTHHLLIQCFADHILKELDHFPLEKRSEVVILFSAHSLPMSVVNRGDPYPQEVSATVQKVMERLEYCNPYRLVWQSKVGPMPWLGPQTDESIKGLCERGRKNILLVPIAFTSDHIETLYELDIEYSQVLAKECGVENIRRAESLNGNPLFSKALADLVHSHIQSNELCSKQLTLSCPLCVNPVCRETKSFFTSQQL
Chain of UniProt P17568 (P17568 whole entry): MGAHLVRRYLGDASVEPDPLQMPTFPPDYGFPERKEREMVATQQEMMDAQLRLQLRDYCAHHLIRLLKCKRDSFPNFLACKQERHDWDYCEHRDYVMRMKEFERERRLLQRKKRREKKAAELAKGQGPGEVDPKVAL
Chain of UniProt Q7Z333 (Q7Z333 whole entry): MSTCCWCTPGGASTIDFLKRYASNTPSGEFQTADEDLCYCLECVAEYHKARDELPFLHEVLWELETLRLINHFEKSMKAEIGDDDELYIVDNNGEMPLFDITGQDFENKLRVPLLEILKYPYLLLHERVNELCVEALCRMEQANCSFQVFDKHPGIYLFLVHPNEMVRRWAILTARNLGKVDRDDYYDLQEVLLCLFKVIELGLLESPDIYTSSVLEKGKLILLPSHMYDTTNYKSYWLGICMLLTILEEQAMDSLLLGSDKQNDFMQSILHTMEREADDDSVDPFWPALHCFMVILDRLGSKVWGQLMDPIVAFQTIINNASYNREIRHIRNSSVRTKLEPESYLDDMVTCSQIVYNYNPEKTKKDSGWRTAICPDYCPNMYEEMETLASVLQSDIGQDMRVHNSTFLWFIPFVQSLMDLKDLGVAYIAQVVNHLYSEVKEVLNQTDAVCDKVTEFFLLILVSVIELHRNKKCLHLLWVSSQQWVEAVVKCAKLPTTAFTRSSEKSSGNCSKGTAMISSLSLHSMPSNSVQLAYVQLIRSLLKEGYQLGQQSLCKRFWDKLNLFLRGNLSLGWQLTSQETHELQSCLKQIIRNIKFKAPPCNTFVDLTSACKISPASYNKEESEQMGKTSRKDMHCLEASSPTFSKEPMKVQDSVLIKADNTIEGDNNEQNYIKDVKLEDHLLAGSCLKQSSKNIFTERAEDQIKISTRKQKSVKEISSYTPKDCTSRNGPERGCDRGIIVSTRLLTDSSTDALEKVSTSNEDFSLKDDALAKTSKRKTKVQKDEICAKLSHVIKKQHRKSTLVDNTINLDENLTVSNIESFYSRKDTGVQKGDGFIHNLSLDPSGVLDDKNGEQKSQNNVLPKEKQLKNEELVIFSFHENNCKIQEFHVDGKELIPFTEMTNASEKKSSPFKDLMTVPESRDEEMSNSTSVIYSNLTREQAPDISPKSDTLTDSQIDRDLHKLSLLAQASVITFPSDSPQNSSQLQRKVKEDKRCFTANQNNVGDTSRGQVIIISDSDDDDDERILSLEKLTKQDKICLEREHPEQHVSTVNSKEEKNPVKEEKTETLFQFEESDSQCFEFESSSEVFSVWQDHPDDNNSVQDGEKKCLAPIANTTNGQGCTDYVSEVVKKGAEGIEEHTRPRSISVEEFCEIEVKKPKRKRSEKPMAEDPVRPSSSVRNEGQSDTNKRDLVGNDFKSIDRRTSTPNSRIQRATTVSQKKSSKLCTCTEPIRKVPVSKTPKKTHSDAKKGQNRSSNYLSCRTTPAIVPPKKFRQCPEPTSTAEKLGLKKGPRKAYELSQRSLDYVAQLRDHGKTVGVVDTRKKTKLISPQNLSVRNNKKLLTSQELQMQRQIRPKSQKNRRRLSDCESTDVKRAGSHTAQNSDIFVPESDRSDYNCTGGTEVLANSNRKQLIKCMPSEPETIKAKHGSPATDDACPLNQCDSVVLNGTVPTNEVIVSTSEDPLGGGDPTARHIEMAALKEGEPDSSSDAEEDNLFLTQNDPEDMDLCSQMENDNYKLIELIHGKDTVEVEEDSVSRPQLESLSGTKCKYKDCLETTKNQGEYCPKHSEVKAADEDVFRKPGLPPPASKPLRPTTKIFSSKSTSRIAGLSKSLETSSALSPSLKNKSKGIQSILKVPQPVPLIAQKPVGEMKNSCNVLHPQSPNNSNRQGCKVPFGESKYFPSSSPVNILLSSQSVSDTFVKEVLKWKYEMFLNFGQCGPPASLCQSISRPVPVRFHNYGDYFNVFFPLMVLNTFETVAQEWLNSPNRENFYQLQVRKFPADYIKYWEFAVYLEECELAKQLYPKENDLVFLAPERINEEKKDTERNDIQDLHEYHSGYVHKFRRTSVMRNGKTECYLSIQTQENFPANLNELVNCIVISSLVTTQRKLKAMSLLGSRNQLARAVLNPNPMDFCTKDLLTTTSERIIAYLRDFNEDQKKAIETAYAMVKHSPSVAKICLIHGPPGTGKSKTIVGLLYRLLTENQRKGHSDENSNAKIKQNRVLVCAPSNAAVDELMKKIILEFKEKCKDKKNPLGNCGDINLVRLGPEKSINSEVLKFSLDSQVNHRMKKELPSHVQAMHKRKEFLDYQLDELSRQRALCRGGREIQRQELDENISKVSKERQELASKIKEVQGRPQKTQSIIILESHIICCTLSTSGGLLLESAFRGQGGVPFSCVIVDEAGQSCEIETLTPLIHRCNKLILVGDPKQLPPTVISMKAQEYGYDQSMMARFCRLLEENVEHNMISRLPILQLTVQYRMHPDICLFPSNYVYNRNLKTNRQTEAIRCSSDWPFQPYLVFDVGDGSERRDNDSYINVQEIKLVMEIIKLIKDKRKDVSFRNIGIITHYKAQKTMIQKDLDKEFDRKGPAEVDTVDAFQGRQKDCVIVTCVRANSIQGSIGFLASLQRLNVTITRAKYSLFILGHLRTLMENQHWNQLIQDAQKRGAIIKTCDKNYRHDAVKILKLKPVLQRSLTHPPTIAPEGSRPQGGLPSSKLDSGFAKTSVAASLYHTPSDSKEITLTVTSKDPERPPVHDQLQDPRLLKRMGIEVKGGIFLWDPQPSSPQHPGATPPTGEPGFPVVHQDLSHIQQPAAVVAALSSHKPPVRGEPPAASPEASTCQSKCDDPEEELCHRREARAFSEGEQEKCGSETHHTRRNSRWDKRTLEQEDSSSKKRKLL
Chain of UniProt Q9NUY8 (Q9NUY8 whole entry): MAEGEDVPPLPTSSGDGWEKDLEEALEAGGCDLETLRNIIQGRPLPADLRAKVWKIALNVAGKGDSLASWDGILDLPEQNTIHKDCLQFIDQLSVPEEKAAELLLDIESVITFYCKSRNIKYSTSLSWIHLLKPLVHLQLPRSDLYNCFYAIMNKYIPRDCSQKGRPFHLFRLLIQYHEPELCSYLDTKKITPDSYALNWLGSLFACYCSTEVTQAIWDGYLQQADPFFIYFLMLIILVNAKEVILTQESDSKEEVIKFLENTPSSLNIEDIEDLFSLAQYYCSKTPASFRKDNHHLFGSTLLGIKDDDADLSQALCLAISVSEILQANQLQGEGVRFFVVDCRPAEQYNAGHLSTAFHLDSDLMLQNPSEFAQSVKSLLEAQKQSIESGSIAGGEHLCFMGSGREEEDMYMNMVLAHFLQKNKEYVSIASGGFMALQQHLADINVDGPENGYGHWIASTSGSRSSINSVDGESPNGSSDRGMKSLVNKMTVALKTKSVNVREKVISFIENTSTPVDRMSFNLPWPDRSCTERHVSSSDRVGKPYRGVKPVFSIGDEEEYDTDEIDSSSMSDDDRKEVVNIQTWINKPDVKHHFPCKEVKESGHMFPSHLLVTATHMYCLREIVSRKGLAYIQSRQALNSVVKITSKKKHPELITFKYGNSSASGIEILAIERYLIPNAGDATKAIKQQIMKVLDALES
Chain of UniProt Q13148 (Q13148 whole entry): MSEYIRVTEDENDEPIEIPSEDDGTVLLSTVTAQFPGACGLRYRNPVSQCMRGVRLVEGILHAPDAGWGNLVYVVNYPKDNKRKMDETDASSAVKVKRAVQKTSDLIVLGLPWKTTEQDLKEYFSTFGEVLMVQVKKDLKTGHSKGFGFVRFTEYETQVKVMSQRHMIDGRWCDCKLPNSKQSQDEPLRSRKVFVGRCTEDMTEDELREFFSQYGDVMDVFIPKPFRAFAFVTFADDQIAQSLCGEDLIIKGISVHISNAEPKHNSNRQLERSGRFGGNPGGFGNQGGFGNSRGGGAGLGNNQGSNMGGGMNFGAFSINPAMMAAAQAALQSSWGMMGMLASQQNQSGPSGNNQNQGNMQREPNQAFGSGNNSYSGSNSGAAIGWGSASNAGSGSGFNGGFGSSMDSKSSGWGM
Chain of UniProt Q92979 (Q92979 whole entry, looked up): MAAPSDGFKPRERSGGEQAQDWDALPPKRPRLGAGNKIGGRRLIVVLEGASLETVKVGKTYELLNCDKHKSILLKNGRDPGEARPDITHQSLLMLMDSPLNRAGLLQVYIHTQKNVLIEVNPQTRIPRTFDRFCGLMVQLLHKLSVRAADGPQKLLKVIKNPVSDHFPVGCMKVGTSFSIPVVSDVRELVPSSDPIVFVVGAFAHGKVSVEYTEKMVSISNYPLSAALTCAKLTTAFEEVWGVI
Chain of UniProt O75368 (O75368 whole entry): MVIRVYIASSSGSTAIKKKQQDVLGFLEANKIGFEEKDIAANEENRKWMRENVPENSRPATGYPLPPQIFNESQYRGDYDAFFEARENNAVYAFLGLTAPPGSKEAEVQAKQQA

Target	thermal stability z-score [1, 3]	thermal stability z-score ([1]; arsenate co-treatment: none)	thermal stability z-score [2]
BCL3 (UniProt P20749)	-0.234	0.114	-0.0259
TBC1D23 (UniProt Q9NUY8)	-0.408	-0.264	0.407
ATP5B (UniProt P06576)	-0.424	-0.332	0.0331
AMDHD2 (UniProt Q9Y303)	0.0258	0.186	1.3
FTSJ3 (UniProt Q8IY81)	-0.198	0.792	-0.519
ERGIC2 (UniProt Q96RQ1)	-0.942	-0.866	-0.232
SNX12 (UniProt Q9UMY4)	-0.128	-0.00318	0.108
MED15 (UniProt Q96RN5)	-0.382	-0.574	-2.01
DAB2IP (UniProt Q5VWQ8)	-0.101	-0.023	-0.398
PGD (UniProt P52209)	0.318	0.403	0.259
TMEM205 (UniProt Q6UW68)	1.01	0.394	1.79
GOT2 (UniProt P00505)	0.218	0.18	-0.0952
ZKSCAN1 (UniProt P17029)	-0.0617	0.0599	0.128
NDUFB7 (UniProt P17568)	-0.619	-0.28	-0.462
TARDBP (UniProt Q13148)	0.125	0.504	-0.755
EMG1 (UniProt Q92979)	-0.357	-0.428	-0.383
CSF2RA (UniProt P15509)	0.513	0.365	0.19
DDX56 (UniProt Q9NY93)	-0.847	-0.217	0.917
RAB30 (UniProt Q15771)	-0.315	-0.0453	0.498
SETX (UniProt Q7Z333)	-0.122	-0.0676	-0.00223
STX16 (UniProt O14662)	-0.63	0.276	0.553
GNAQ (UniProt P50148)	-0.312	0.15	-1.39
BID (UniProt P55957)	0.895	1.36	0.587
SLC25A24 (UniProt Q6NUK1)	-0.0911	-0.127	0.205
RPL26L1 (UniProt Q9UNX3)	0.252	0.884	0.434
IGF2BP1 (UniProt Q9NZI8)	-0.0135	0.286	-0.379
MEPCE (UniProt Q7L2J0)	-0.372	0.65	1.22
FECH (UniProt P22830)	0.24	0.0849	-0.203

Target	thermal stability z-score [1, 3]	thermal stability z-score ([1]; arsenate co-treatment: none)	thermal stability z-score [2]
HN1 (UniProt Q9UK76)	1.68	1.13	0.518
MVK (UniProt Q03426)	-0.352	-0.323	-0.675
PNN (UniProt Q9H307)	1.03	0.507	-0.467
NUP37 (UniProt Q8NFH4)	0.338	-0.0489	0.82
FRA10AC1 (UniProt Q70Z53)	0.081	0.0654	0.108
TRIP6 (UniProt Q15654)	-1.35	-0.966	-5.81
MAP3K2 (UniProt Q9Y2U5)	0.15	-0.461	-0.71
HSP90B1 (UniProt P14625)	-3.56	-2.61	0.54
EXOSC10 (UniProt Q01780)	0.0236	-0.0314	-0.437
RAPGEF2 (UniProt Q9Y4G8)	0.309	-0.293	-0.388
AGR2 (UniProt O95994)	-2.84	-2.57	-0.355
WDR74 (UniProt Q6RFH5)	-1.21	-0.713	-0.205
LARS2 (UniProt Q15031)	-0.0508	0.0433	-0.741
IGSF3 (UniProt O75054)	0.454	-0.247	-0.196
RPRD1B (UniProt Q9NQG5)	0.793	0.977	0.808
PTPN9 (UniProt P43378)	-0.0496	0.0634	0.0393
DIABLO (UniProt Q9NR28)	0.979	0.495	0.154
NFIA (UniProt Q12857)	-1.05	-1.1	-0.647
RPL10 (UniProt P27635)	0.0934	-0.15	-0.781
SREK1 (UniProt Q8WXA9)	0.0164	0.0581	0.00931
SH3BGRL (UniProt O75368)	0.42	0.213	0.235
OSTF1 (UniProt Q92882)	-0.217	0.551	0.00115
DNA2 (UniProt P51530)	-0.0519	-0.0211	-0.131
CAMK2D (UniProt Q13557)	0.111	0.215	-0.0188
MED27 (UniProt Q6P2C8)	-0.0367	0.069	0.0267
CMSS1 (UniProt Q9BQ75)	0.27	0.0303	-2.12
HSPA1B|HSPA1A	-0.148	0.0496	-0.064
